According to patent publication US8530381B2, “Active compound combinations” (Bayer CropScience AG, priority 2009, dated 2013):

Legend:
Pyrenophora teres = assay: Pyrenophora teres-test (barley)/preventive; assay type: in vivo; settings: preventive spray, evaluated 8 days after inoculation
Method: (§1) Here, the efficacy is determined in %. 0% means an efficacy which corresponds to that of the control, whereas an efficacy of 100% means that no infection is observed.
(§2) If the actual fungicidal action exceeds the calculated value, the action of the combination is superadditive, i.e. a synergistic effect is present. In this case, the actually observed efficacy must exceed the value calculated using the above formula for the expected efficacy (E).
Pyrenophora teres-Test (Barley)/Preventive
(§3) Solvent: 49 parts by weight of n,n-dimethylacetamid
(§4) Emulsifier: 1 part by weight of alkylaryl polyglycol ether
(§5) To produce a suitable preparation of active compound, 1 part by weight of active compound or active compound combination is mixed with the stated amounts of solvent and emulsifier, and the concentrate is diluted with water to the desired concentration.
(§6) To test for preventive activity, young plants are sprayed with the preparation of active compound or active compound combination at the stated rate of application.
After the spray coating has been dried, the plants are sprayed with a spore suspension of Pyrenophora teres. The plants remain for 48 hours in an incubation cabinet at approximately 20° C. and a relative atmospheric humidity of approximately 100%. […]
The test is evaluated 8 days after the inoculation. […]

[1] = test system: Blumeria graminis f.sp. hordei; assay: Blumeria-test (barley)/preventive; assay type: in vivo; settings: preventive spray, application rate 62,5 g/ha, evaluated 7 days after inoculation
Method: as §1, §2
Blumeria Test (Barley)/Preventive
as §3, §4, §5, §6
After the spray coating has been dried, the plants are dusted with spores of Blumeria graminis f.sp. hordei.
The plants are placed in the greenhouse at a temperature of approximately 18° C. and a relative atmospheric humidity of approximately 80% to promote the development of mildew pustules.
The test is evaluated 7 days after the inoculation. 0% means an efficacy which corresponds to that of the control, while an efficacy of 100% means that no disease is observed.

Row | Compound | Efficacy in % found (Pyrenophora teres; application rate 62,5 g/ha) [%] | Efficacy in % found [1] [%] | Efficacy in % found (Pyrenophora teres; application rate 125 g/ha) [%]
1 | CCN(C)/C=N/c1cc(C)c(Oc2nc(Cc3ccc(Cl)cc3)ns2)cc1C [I-a] | 40 | 40 | –
2 | CO/N=C(/C(=O)OC)c1ccccc1CO/N=C(\C)c1cccc(C(F)(F)F)c1 [3.17, trifloxystrobin] | – | 80 | –
3 | Cn1cc(C(=O)Nc2ccc(F)cc2-c2ccc(Cl)c(Cl)c2)c(C(F)F)n1 [2.2, bixafen] | – | 10 | –
4 | OC(Cc1ccccc1Cl)(Cn1nc[nH]c1=S)C1(Cl)CC1 (centres unmarked) [1.41, prothioconazole] | – | – | 70
